Assay results published in PMC3937006, “Synergism of peptide receptor-targeted Auger electron radiation therapy with anti-angiogenic compounds in a mouse model of neuroendocrine tumors” (EJNMMI Research, 2014).

Tests used:
[1] = tested on: CD31-positive blood vessels in tumors of Rip1Tag2 mice; test: Microvessel density, CD31 immunohistochemistry on tumor sections; assay type: in vivo, mouse; conditions: for microvessel density, CD31-positive blood vessels (median): Rip1Tag2 mice after 7-day therapy, radiopeptide 1.1 MBq, natIn-exendin-4 40 pmol, kinase inhibitor 100 mg/kg p.o.
[2] = tested on: pancreatic tumors and other organs of Rip1Tag2 mice; assay type: in vivo, mouse
Experimental: Male and female Rip1Tag2 mice, 19 to 32 g of weight and 11.6 ± 0.7 weeks old, were stratified according to their age and randomly assigned to the different cohorts. […] Both vatalanib and imatinib were provided by Novartis (Basel, Switzerland). Days (0, 3, 5, and 7 days) after the beginning of vatalanib or imatinib treatment, the mice were injected through the tail vein with 185 kBq (10 ng peptide/2 pmol) [Lys^40(Ahx-DTPA-^111In)NH2]-exendin-4 (^111In-DTPA-exendin-4) in a 100-μl 1% human serum albumin solution diluted in 0.9% NaCl. At 4 h after injection, the mice were sacrificed under isoflurane and CO2 anesthesia. The organs, blood, and tumors were collected, weighed, and the radioactivity in these samples was determined using a γ-counter. The percentage of injected activity (IA)/g tissue was calculated for each tissue.

[3] = tested on: tumor β-cells of Rip1Tag2 mice; test: Tumor cell apoptosis, TUNEL assay; assay type: in vivo, mouse; conditions: Rip1Tag2 mice after 7-day therapy, vatalanib study
[4] = tested on: pancreatic neuroendocrine tumors (pNET) of Rip1Tag2 mice; test: Therapy study, tumor volume in Rip1Tag2 mice; conditions: day 8, radiopeptide 1.1 MBq i.v. once, kinase inhibitor 100 mg/kg p.o. daily for 7 days
GLP-1R = test: GLP-1 receptor autoradiography of tumors after vatalanib treatment; assay type: in vivo, mouse; conditions: Rip1Tag2 mice, vatalanib 100 mg/kg p.o. for 4 days, n = 4; 32 pM [125I]-GLP-1; p = 0.98 vs saline control
Experimental: GLP-1 receptor autoradiography was used to quantify the GLP-1 receptors in the mouse tumors in the presence or absence of vatalanib treatment. The Rip1Tag2 mice were treated with vatalanib as described before for 4 days and sacrificed on day 5. During necropsy, the tumors were snap frozen on dry ice. Tumor sections (20-μm thick) were incubated for 2 h at ambient temperature in the presence of 32 pM [^125I]-GLP-1 (2,000 Ci/mmol). The incubation solution was 170 mM Tris-HCI buffer (pH 8.2) containing 1% bovine serum albumin, bacitracin (40 μg/ml) and MgCl2 (10 mM) to inhibit endogenous proteases. Non-specific binding was determined by adding 100-nM solution of unlabeled GLP-1. The incubated sections were washed twice for 5 min in cold incubation buffer containing 0.25% bovine serum albumin, then in buffer alone, and dried quickly. Finally, the sections were apposed to Biomax MR films (Kodak, Rochester, NY, USA) and exposed for 1 week in X-ray cassettes.
In all the experiments, the autoradiograms were quantified using a computer-assisted image processing system. Tissue standards for iodinated compounds were used for this purpose.

[5] = tested on: pancreatic neuroendocrine tumors (pNET) of Rip1Tag2 mice; conditions: injection of 28 MBq; cited from earlier work
From the text: (§1) We have shown in the Rip1Tag2 mouse model of pancreatic neuroendocrine tumors (pNET) that [Lys^40(Ahx-DTPA-^111In)NH2]-exendin-4 is suitable for molecular imaging of NETs using single-photon emission computed tomography (SPECT). pNETs could be detected down to a size of 1 mm in diameter. In a clinical pilot study, we could localize occult insulinomas that were not detectable using conventional imaging methods.

[6] = tested on: pancreas, lungs, bowel and kidneys of Rip1Tag2 and C57/Bl6 mice; conditions: dose of 28 MBq; cited from earlier work
From the text: as §1

[7] = tested on: GLP-1 receptor-expressing tumor cells established from pancreatic tumors of Rip1Tag2 mice; assay type: cell-based, mouse
Experimental: A nuclei isolation kit (Nuclei EZ Prep Kit, Sigma-Aldrich Chemie Gmbh, Steinheim, Germany) was used to separate and quantify the amount of radioactivity stored in the nuclei. The preparation was done according to the manufacturer's instructions. The GLP-1 receptor-expressing tumor cells were established from pancreatic tumors of Rip1Tag2 mice, as described previously. The cells were seeded at a density of 2 × 10^7 cells in Petri dishes and incubated overnight. Afterward, 25 pmol ^111In-DTPA-exendin-4 (2.5 MBq) was added to the Petri dishes and incubated at 37°C. The internalization was stopped at 2, 4, and 24 h by removing the medium and by washing the cells four times with 5-ml ice-cold phosphate-buffered saline. Ice-cold nuclei EZ lysis buffer (2 ml) was added, and the cells were scraped with a small bladed cell scraper. The cell lysate was transferred to a separate 15-ml centrifuge tube and set on ice for 5 min. To collect the nuclei, the cell lysate was centrifuged three times at 500 g for 5 min at 4°C. The culture medium, the clear supernatant (cytoplasmatic supernatant), and nucleus pellets were measured radiometrically with a γ-counter.

[8] = tested on: pancreatic tumors and other organs of Rip1Tag2 mice; conditions: mouse, in vivo; cited from earlier work
From the text: Thus, the combination with an anti-angiogenic drug that has a different toxicity profile than the radiopeptide reduces the amount of [Lys^40(Ahx-DTPA-^111In)NH2]-exendin-4 and is a more nephroprotective treatment. This is relevant because kidney ...

| Compound | effect on tumor-associated vessels ([1]; imatinib 100 mg/kg p.o. for 7 days) | effect of pre-treatment on uptake of the radiopeptide ([2]; imatinib 100 mg/kg p.o. daily, independent of organ or time point (0, 3, 5, 7 days)) | microvessel density, CD31-positive blood vessels (median) [1] | number of apoptotic cells/0.1 mm^2 (median) [3] | tumor volume treated/volume control (T/C) ratio [4] | expression of the GLP-1R on pancreatic tumors by autoradiography (GLP-1R) | effect on radiopeptide uptake in all the other organs ([2]; vatalanib 100 mg/kg p.o. daily up to 7 days) | reduction of radiopeptide uptake in the kidney ([2]; vatalanib 100 mg/kg p.o. daily, within 7 days, p < 0.001) | decrease of specific tumor uptake of radiopeptide ([2]; within the first 5 days of vatalanib treatment) | reduction of the tumor mass [5] | renal toxicity [6] | internalized activity accumulated in the nucleus [7] | tumor uptake [8] |
| --- | --- | --- | --- | --- | --- | --- | --- | --- | --- | --- | --- | --- | --- |
| Cc1ccc(NC(=O)c2ccc(CN3CCN(C)CC3)cc2)cc1Nc1nccc(-c2cccnc2)n1 [imatinib] | no apparent effect | did not affect the uptake |  |  |  |  |  |  |  |  |  |  |  |
| Clc1ccc(Nc2nnc(Cc3ccncc3)c3ccccc23)cc1 [vatalanib] |  |  | 28 /mm^2 | 1.7 cells/0.1 mm^2 | 0.26 | 14,176 ± 5,958 dgm/min | unaffected | 29.5% | more than 50% |  |  |  |  |
| [Lys^40(Ahx-DTPA-^111In)NH2]-exendin-4 |  |  | 77 /mm^2 |  |  |  |  |  |  | 94% | significant renal radiation damage and consequent chronic renal failure | less than 5% | 287 ± 62 % IA/g tumor |
